Source: ChEMBL document CHEMBL5329199, “Discovery of novel dual Bruton's tyrosine kinase (BTK) and Janus kinase 3 (JAK3) inhibitors as a promising strategy for rheumatoid arthritis” (Bioorg Med Chem, 2023)

Key:
[1] = biological target: Tyrosine-protein kinase BTK (Homo sapiens, UniProt Q06187); assay: Inhibition of BTK (unknown origin) preincubated for 10 mins followed by kinase substrate and ATP addition and measured for 20 mins by mobility shift assay
[2] = biological target: T1, Tyrosine-protein kinase JAK3 (Homo sapiens, UniProt P52333); assay: Inhibition of JAK3 (unknown origin) preincubated for 10 mins followed by kinase substrate and ATP addition and measured for 30 mins by mobility shift assay
T1 sequence (P52333 whole entry): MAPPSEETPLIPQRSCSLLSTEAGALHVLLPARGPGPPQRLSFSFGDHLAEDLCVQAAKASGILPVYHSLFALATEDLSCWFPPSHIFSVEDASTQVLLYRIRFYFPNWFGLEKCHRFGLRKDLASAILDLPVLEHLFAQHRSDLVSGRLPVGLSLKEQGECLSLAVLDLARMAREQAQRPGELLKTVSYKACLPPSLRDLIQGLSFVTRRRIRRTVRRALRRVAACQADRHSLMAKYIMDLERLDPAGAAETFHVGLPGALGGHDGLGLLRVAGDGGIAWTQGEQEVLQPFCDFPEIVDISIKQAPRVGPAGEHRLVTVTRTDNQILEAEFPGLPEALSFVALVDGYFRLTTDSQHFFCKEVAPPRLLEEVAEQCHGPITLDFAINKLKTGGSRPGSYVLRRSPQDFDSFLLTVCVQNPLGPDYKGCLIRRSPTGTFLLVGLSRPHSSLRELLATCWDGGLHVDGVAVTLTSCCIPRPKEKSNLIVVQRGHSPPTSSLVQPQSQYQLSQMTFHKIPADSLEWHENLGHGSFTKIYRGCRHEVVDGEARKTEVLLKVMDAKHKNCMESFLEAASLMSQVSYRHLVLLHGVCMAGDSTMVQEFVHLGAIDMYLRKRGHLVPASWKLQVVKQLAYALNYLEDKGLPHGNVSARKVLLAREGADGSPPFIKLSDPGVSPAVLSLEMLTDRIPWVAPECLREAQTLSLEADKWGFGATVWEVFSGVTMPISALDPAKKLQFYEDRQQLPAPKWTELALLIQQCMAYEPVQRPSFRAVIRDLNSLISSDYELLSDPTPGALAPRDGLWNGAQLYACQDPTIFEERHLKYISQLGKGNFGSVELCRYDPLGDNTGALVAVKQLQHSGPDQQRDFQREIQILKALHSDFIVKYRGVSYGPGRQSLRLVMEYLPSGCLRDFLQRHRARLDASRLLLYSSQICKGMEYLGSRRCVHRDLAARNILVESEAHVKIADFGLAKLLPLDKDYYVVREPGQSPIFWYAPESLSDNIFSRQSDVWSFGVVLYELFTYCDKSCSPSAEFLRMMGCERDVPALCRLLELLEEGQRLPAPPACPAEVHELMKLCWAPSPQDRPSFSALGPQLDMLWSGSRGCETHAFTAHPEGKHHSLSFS

[3] = Acute toxicity in po dosed ICR mouse assessed as minimum lethal dose measured for 7 days; format: organism-based; settings: in vivo, 168 h, time 7 day
Daudi = assay: Antiproliferative activity against human Daudi cells assessed as inhibition of cell growth incubated for 72 hrs by Cell Titer-Glo assay; format: functional, cell-based
BaF3 = assay: Antiproliferative activity against mouse BaF3 cells expressing JAK3 mutant assessed as inhibition of cell growth incubated for 72 hrs by Cell Titer-Glo assay; format: functional, cell-based; settings: BaF3, 72 h

Tyrosine-protein kinase BTK, sequence (Q06187 whole entry): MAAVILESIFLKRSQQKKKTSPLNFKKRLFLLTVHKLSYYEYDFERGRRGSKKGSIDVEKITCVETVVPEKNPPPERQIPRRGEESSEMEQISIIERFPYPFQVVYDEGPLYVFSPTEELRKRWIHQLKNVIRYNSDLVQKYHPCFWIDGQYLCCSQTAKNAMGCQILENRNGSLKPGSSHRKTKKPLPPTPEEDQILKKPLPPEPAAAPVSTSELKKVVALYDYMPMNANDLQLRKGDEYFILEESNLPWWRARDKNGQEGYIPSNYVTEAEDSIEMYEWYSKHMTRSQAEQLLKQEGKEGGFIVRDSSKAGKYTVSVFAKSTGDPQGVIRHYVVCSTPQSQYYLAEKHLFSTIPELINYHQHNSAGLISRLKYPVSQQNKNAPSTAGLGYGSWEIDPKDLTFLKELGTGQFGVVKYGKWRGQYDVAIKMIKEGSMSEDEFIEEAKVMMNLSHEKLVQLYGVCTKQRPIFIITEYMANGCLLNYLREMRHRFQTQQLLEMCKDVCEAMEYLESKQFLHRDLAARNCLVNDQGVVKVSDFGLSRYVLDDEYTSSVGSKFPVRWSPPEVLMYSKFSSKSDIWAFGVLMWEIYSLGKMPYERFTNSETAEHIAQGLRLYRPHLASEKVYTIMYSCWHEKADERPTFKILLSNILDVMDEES

Structure (SMILES) | IC50 [1] | IC50 [2] | MLD [3] | IC50 (Daudi) | IC50 (BaF3)
C=CC(=O)N1CCC[C@@H](n2nc(-c3ccc(NC(=O)C45CC6CC(CC(C6)C4)C5)c4c3OCO4)c3c(N)ncnc32)C1 | 5.94 nM | 500 nM |  |  | 
C=CC(=O)N1CCC[C@@H](n2nc(-c3ccc(NC(=O)C45CCC(CC4)C5)c4c3OCO4)c3c(N)ncnc32)C1 | 1.48 nM | 500 nM |  |  | 
C=CC(=O)N1CCC[C@@H](n2nc(-c3ccc(NC(=O)c4cc5ccccc5s4)c4c3OCO4)c3c(N)ncnc32)C1 | 0.42 nM | 19 nM |  |  | 
C=CC(=O)N1CCC[C@@H](n2nc(-c3ccc(NC(=O)c4ccco4)c4c3OCO4)c3c(N)ncnc32)C1 | 1.48 nM | 192 nM |  |  | 
C=CC(=O)N1CCC[C@@H](n2nc(-c3ccc(NC(=O)c4ccc[nH]4)c4c3OCO4)c3c(N)ncnc32)C1 | 2.4 nM | 100 nM |  |  | 
CC#CC(=O)N1CCC[C@@H](n2nc(-c3ccc(NC(=O)c4ccccc4)c4c3OCO4)c3c(N)ncnc32)C1 | 24 nM | > 10000 nM |  |  | 
C=CC(=O)N1CCC[C@@H](n2nc(-c3ccc(NC(=O)C4CCN(C)CC4)c4c3OCO4)c3c(N)ncnc32)C1 | 585 nM | > 10000 nM |  |  | 
C=CC(=O)N1CCC[C@@H](n2nc(-c3ccc(NC(=O)c4ccc(C#N)cc4)c4c3OCO4)c3c(N)ncnc32)C1 | 2.9 nM | 372 nM |  |  | 
C=CC(=O)N1CCC[C@@H](n2nc(-c3ccc(NC(=O)c4ccc(Cl)cc4)c4c3OCO4)c3c(N)ncnc32)C1 | 1.3 nM | 44 nM |  |  | 
C=CC(=O)N1CCC[C@@H](n2nc(-c3ccc(NC(=O)c4ccc(OC)c(OC)c4)c4c3OCO4)c3c(N)ncnc32)C1 | 3.4 nM | 147 nM |  |  | 
N#C/C(=C\C1CC1)C(=O)N1CCC[C@@H](n2nc(-c3ccc(NC(=O)c4ccccc4)c4c3OCO4)c3c(N)ncnc32)C1 | 3 nM | > 10000 nM |  |  | 
C=CC(=O)N1CCC[C@@H](n2nc(-c3ccc(NC(=O)c4ccc(-c5ccccc5)cc4)c4c3OCO4)c3c(N)ncnc32)C1 | 2.1 nM | 120 nM |  |  | 
C=CC(=O)Nc1cccc(Cn2nc(-c3ccc(NC(=O)c4ccccc4)c4c3OCO4)c3c(N)ncnc32)c1 | 29 nM | > 10000 nM |  |  | 
C=CC(=O)N1CCC[C@@H](n2nc(-c3ccc(NC(=O)c4ccc(C(F)(F)F)cc4)c4c3OCO4)c3c(N)ncnc32)C1 | 1.8 nM | 51 nM |  |  | 
C=CC(=O)N1CCC[C@@H](n2nc(-c3ccc(NC(=O)c4ccccc4N(C)C)c4c3OCO4)c3c(N)ncnc32)C1 | 3.49 nM | 122 nM |  |  | 
C=CC(=O)N1CCC[C@@H](n2nc(-c3ccc(Oc4ccccc4)cc3)c3c(N)ncnc32)C1 [IBRUTINIB] |  |  | 750 mg/kg | 656 nM | 1420 nM
